Laboratory results: ChEMBL document CHEMBL4387740, “Discovery of ABT-957: 1-Benzyl-5-oxopyrrolidine-2-carboxamides as selective calpain inhibitors with enhanced metabolic stability” (Bioorg Med Chem Lett, 2019)

What was measured:
Homo sapiens [1] = species on record: Homo sapiens; assay: Selectivity ratio, ratio of Ki for CatK (unknown origin) to Ki for Cal1 (unknown origin)
Homo sapiens [2] = species on record: Homo sapiens; assay: Selectivity ratio, ratio of Ki for CatB (unknown origin) to Ki for Cal1 (unknown origin)
[3] = biological target: T1, Calpain-1 catalytic subunit (Homo sapiens, UniProt P07384); assay: Inhibition of Cal1 (unknown origin)
T1 sequence (P07384 whole entry): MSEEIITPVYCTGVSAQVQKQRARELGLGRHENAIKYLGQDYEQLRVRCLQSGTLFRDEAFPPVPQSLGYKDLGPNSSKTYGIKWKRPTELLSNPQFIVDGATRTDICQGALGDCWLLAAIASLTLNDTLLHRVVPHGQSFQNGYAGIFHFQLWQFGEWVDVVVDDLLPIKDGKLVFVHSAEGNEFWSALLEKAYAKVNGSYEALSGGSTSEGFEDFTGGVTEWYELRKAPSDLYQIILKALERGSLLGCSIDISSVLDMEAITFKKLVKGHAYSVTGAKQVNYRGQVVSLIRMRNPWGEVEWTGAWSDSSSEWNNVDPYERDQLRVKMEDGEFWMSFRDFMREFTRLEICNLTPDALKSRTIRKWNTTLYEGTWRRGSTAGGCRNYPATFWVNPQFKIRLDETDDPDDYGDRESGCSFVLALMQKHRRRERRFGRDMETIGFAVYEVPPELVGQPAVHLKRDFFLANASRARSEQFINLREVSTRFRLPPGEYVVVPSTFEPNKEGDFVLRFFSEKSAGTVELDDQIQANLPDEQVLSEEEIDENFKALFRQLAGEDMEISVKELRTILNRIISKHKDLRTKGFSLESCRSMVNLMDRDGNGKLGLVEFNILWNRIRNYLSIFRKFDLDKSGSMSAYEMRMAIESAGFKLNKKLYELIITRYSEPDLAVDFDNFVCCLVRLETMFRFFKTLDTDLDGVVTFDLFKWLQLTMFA

Homo sapiens [4] = species on record: Homo sapiens; assay: Selectivity ratio, ratio of Ki for CatL (unknown origin) to Ki for Cal1 (unknown origin)
[5] = Selectivity ratio, ratio of Ki for CatS (unknown origin) to Ki for Cal1 (unknown origin); conditions: Homo sapiens
[6] = Intrinsic clearance in rat liver microsomes; assay type: ADME, Microsome; conditions: read-out: CLH
[7] = Intrinsic clearance in human liver microsomes; assay type: ADME, Microsome; conditions: read-out: CLH
[8] = Intrinsic clearance in human liver cytosol; assay type: ADME, subcellular; conditions: read-out: CLH
[9] = Intrinsic clearance in rat liver microsomes; conditions: read-out: CLH

| SMILES | Selectivity ratio (Homo sapiens [1]) | Selectivity ratio (Homo sapiens [2]) | Ki [3] | Selectivity ratio (Homo sapiens [4]) | Selectivity ratio [5] | microsomal CLint [6] | microsomal CLint [7] | microsomal CLint [8] | microsomal CLint [9] |
| --- | --- | --- | --- | --- | --- | --- | --- | --- | --- |
| CC(C)(C)CN1C(=O)CC[C@@H]1C(=O)NC(Cc1ccccc1)C(=O)C(N)=O (mixture of isomers) | 7 | 23 | 1350 nM | 7 | 7 |  |  |  |  |
| COc1cccc(C(F)(F)F)c1CN1C(=O)CC[C@@H]1C(=O)NC(Cc1ccccc1)C(=O)C(N)=O (mixture of isomers) | 120 | 51 | 36 nM | 387 | 395 |  |  |  |  |
| O=C(NCc1ccc(F)cc1)C(=O)C(Cc1ccccc1)NC(=O)[C@H]1CCC(=O)N1Cc1ccccc1 (some centres not stated) | 70 | 104 | 48 nM | 34 | 286 | > 100 µL/min/mg | > 70 µL/min/mg | 3 µL/min/mg |  |
| NC(=O)C(=O)C(Cc1ccccc1)NC(=O)[C@H]1CCCC(=O)N1Cc1ccccc1 (mixture of isomers) | 4 | 14 | 64 nM | 21 | 56 |  |  |  |  |
| O=C1CC[C@H](C(=O)NC(Cc2ccccc2)C(=O)C(=O)NC2CC2)N1 (some centres not stated) |  |  | 9700 nM |  |  |  | < 1 µL/min/mg | < 23 µL/min/mg | < 23 µL/min/mg |
| NC(=O)C(=O)C(Cc1ccccc1)NC(=O)[C@H]1CCC(=O)N1Cc1ccncc1 (mixture of isomers) | 13 | 16 | 180 nM | 9 | 35 |  |  |  |  |
| C[C@H]1C[C@H](C(=O)NC(Cc2ccccc2)C(=O)C(N)=O)N(Cc2ccccc2)C1=O (mixture of isomers) | 1 | 23 | 50 nM | 13 | 3 |  |  |  |  |
| Cn1cc(CN2C(=O)CC[C@@H]2C(=O)NC(Cc2ccccc2)C(=O)C(=O)NC2CN2)cn1 (some centres not stated) |  |  | 530 nM |  |  |  |  | 27 µL/min/mg | 39 µL/min/mg |
| O=C(NC1CC1)C(=O)C(Cc1ccccc1)NC(=O)[C@H]1CCC(=O)N1Cc1ccccc1OC(F)(F)F (some centres not stated) | > 200 | 22 | 50 nM | 17 | > 200 |  | < 1 µL/min/mg | > 70 µL/min/mg | > 100 µL/min/mg |
| NC(=O)C(=O)C(Cc1ccccc1)NC(=O)[C@H]1CCC(=O)N1c1ccccc1 (mixture of isomers) | 6 | 28 | > 1350 nM | 7 | 11 |  |  |  |  |
| NC(=O)C(=O)C(Cc1ccccc1)NC(=O)c1cccnc1-n1ccc(-c2ccc(F)cc2)n1 (configuration not stated) | 18 | 10 |  | 127 | > 300 |  |  |  |  |
| NC(=O)C(=O)C(Cc1ccccc1)NC(=O)[C@H]1CCC(=O)N1Cc1ccccc1OC(F)(F)F (mixture of isomers) | 33 | 5 | 57 nM | 41 | 127 |  |  |  |  |
| CCCCC(NC(=O)[C@H]1CCC(=O)N1Cc1ccccc1)C(=O)C(N)=O (mixture of isomers) | 6 | 4 | 46 nM | 21 | 41 |  |  |  |  |
| O=C(NC1CCC1)C(=O)C(Cc1ccccc1)NC(=O)[C@H]1CCC(=O)N1Cc1ccccc1 (some centres not stated) | 27 | 66 | 110 nM | 20 | 130 | > 100 µL/min/mg | 37 µL/min/mg | 1 µL/min/mg |  |
| O=C(NC1CC1)C(=O)C(Cc1ccccc1)NC(=O)[C@H]1CCC(=O)N1C1Cc2ccccc2C1 (some centres not stated) |  |  | 545 nM |  |  |  | 2 µL/min/mg | 42 µL/min/mg | 58 µL/min/mg |
| NC(=O)C(=O)C(Cc1ccccc1)NC(=O)[C@H]1CCC(=O)N1CC1CCCCC1 (mixture of isomers) | < 1 | 8 | 200 nM | 2 | 5 |  |  |  |  |
| CONC(=O)C(=O)C(Cc1ccccc1)NC(=O)[C@H]1CCC(=O)N1Cc1ccccc1 (some centres not stated) |  |  | 4360 nM |  |  |  |  |  |  |
| O=C(Nc1ccccc1)C(=O)C(Cc1ccccc1)NC(=O)[C@H]1CCC(=O)N1Cc1ccccc1 (some centres not stated) | 88 | 296 | 70 nM | 37 | > 400 | > 100 µL/min/mg | > 70 µL/min/mg | 5 µL/min/mg |  |
| NC(=O)C(=O)C(Cc1ccccc1)NC(=O)[C@H]1CCC(=O)N1Cc1ccccc1C(F)(F)F (mixture of isomers) | 102 | 17 | 59 nM | 65 | 524 |  |  |  |  |
| CN1C[C@H](C(=O)NC(Cc2ccccc2)C(=O)C(N)=O)N(Cc2ccccc2)C1=O (mixture of isomers) | 4 | 72 | 101 nM | 3 | 2 |  |  |  |  |
| O=C(NC1CC1)C(=O)C(Cc1ccccc1)NC(=O)[C@H]1CCC(=O)N1Cc1ccccc1Cl (some centres not stated) | 93 | 18 | 73 nM | 57 | > 130 |  | < 1 µL/min/mg | > 70 µL/min/mg | > 100 µL/min/mg |
| NC(=O)C(=O)C(Cc1ccccc1)NC(=O)[C@@H]1CCC(=O)N1Cc1ccccc1 (mixture of isomers) | 17 | 5 | 528 nM | 6 | 2 |  |  |  |  |
| Cc1ccc(S(=O)(=O)N2CCC[C@@H]2C(=O)NC(Cc2ccccc2)C(=O)C(N)=O)cc1 (mixture of isomers) | 14 | 72 | 129 nM | 4 | 14 |  |  |  |  |
| NC(=O)C(=O)C(Cc1ccccc1)NC(=O)[C@H]1CCC(=O)N1Cc1cccc(OC(F)(F)F)c1 (mixture of isomers) | 61 | 7 | 125 nM | 4 | 76 |  |  |  |  |
| NC(=O)C(=O)C(Cc1ccccc1)NC(=O)[C@H]1CCC(=O)N1Cc1cccc(C(F)(F)F)c1 (mixture of isomers) | 84 | 15 | 26 nM | 11 | 85 |  |  |  |  |
| NC(=O)C(=O)C(Cc1ccccc1)NC(=O)c1cccc(=O)n1Cc1ccccc1 (configuration not stated) | 2 | 15 | 82 nM | 4 | 13 |  |  |  |  |
| O=C(NC1CC1)C(=O)C(Cc1ccccc1)NC(=O)[C@H]1CCC(=O)N1Cc1ccccc1C(F)(F)F (some centres not stated) | 109 | 33 | 90 nM | 162 | > 100 |  | > 1 µL/min/mg | > 70 µL/min/mg | > 100 µL/min/mg |
| NC(=O)C(=O)C(Cc1ccccc1)NC(=O)C1CCS(=O)(=O)N1Cc1ccccc1 (mixture of isomers) | 2 | 56 | 268 nM | 12 | 7 |  |  |  |  |
| CCNC(=O)C(=O)C(Cc1ccccc1)NC(=O)[C@H]1CCC(=O)N1Cc1ccccc1 (mixture of isomers) | 85 | 55 | 165 nM | 44 | 60 | < 23 µL/min/mg | < 23 µL/min/mg | 4 µL/min/mg |  |
